Measured values: patent publication US6878697B2, “Phenylamino-pyrimidines and uses thereof” (Ariad Pharmaceuticals, Inc., priority 2001, dated 2005)

Experiment: Hydroxyapatite assay (hydroxyapatite adsorption chromatography)
Type: physicochemical
Details: corrected retention K=(retention time-void time)/void on TSK-Gel HA 1000 HPLC column; linear gradient 10 mM to 500 mM sodium phosphate, 0.15 N NaCl, pH 6.8
Description: Hydroxyapatite is the principal mineral component of bone. Hydroxyapatite adsorption chromatography is used as an assay to evaluate the bone-targeting potential of both individual bone-targeting moieties (“monomers”) and of pharmaceuticals incorporating bone-targeting groups.
Method: The rentention time of a test compound is measured using a linear gradient from 10 mM sodium phosphate, 0.15 N NaCl, pH=6.8 to 500 mM sodium phosphate, 0.15 N NaCl, […] on a TSK-Gel HA 1000 high pressure liquid chromatography column (7.5 mm×75 mm). The rentention time of the compound is expressed in terms of K=(retention time-void time)/void. This K value is corrected using two reference compounds to correct from inter-column and inter-system variation to obtain a K′ value.
Reference Compounds: K′ values were determined for known bone targeted compounds, the bisphosphonate, alendronate and tetracycline.

K′ value: 3.7
Compound: NCCCC(O)(P(=O)(O)O)P(=O)(O)O [Alendronate, alendronate]
